The numbers were not newly measured in publication PMC4072508, “Genome-Wide Prediction and Validation of Peptides That Bind Human Prosurvival Bcl-2 Proteins” (PLoS Computational Biology, 2014), which cites them from elsewhere.

The target of one series is T1, Bcl-xL (Homo sapiens, UniProt Q07817).
T1 construct: myc-Bcl-xL SPOT array & FP; made in house
Conditions: natural BH3 peptides, interactions taken from literature; cited from earlier work.

A further series addresses T2, Mcl-1 (Homo sapiens, UniProt Q07820).
T2 construct: myc-Mcl-1 SPOT array & FP; made in house
The following applies: read-out: Binder class, Mcl-1; natural BH3 peptides, interactions taken from literature; cited from earlier work. From the text: Negative control mutatio ...

Another series concerns the target T3, Bcl-w (Homo sapiens, UniProt Q92843, Q133R).
T3 construct: myc-Bcl-w SPOT array & FP; made in house
T3 sequence (Q92843 with tags, fused parts or gaps Q133R): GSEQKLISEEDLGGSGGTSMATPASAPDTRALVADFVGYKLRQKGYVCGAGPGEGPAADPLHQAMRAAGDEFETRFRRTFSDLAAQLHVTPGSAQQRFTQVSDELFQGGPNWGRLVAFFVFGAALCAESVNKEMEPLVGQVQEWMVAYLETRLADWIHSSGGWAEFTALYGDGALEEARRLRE
Conditions: natural BH3 peptides, interactions taken from literature; read-out: Binder class, Bcl-w; cited from earlier work.

For another series, the target named is T4, Bcl-2 (Homo sapiens, UniProt P10415, DEL53-91).
T4 construct: myc- Bcl-2 FP; made in house
T4 sequence (P10415 with tags, fused parts or gaps DEL53-91): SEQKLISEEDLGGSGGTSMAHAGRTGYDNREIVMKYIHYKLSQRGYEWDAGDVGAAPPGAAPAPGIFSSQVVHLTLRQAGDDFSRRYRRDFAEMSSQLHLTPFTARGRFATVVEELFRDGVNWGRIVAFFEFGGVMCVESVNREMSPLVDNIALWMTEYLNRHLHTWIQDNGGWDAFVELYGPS
Conditions: natural BH3 peptides, interactions taken from literature; read-out: Binder class, Bcl-2; cited from earlier work.

A further series concerns the target T5, Bfl-1 (Homo sapiens, UniProt Q16548).
T5 construct: myc- Bfl-1 SPOT array & FP; made in house
T5 sequence (Q16548 with tags, fused parts or gaps): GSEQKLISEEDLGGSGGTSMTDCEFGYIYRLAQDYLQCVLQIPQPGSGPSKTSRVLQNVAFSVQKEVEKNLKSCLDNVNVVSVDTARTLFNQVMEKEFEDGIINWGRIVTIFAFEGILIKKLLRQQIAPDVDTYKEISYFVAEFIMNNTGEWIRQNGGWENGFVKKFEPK
Conditions: natural BH3 peptides, interactions taken from literature; read-out: Binder class, Bfl-1; cited from earlier work.

T1 sequence (Q07817 with tags, fused parts or gaps): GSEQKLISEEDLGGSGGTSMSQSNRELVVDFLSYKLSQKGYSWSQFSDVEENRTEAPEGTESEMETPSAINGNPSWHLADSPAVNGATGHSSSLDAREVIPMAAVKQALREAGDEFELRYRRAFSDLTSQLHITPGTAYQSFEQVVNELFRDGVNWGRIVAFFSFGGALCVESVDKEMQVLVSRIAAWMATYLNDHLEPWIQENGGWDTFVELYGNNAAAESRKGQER
T2 sequence (Q07820 with tags, fused parts or gaps): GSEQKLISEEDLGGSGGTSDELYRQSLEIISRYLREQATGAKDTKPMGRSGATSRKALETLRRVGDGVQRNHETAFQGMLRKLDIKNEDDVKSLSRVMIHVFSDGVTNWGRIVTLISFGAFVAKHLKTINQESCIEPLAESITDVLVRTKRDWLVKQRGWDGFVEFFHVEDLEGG

As for IIRNIARHAAQVGASMDRSIPPG [Bid (X)], the Binder class (Kd bin) on Bcl-xL is more than 10 µM. The Kd on Mcl-1 was less than 1 µM; at Bcl-w, less than 1 µM; at Bcl-2 it was less than 1 µM; at Bfl-1, more than 10 µM.
